Like-named read-outs stand apart in the source and are kept apart here.
Legend:
Type in all cases: in vivo
[1] = tested on: Brassica napus (BRSNN, rape); assay: Test 2 glasshouse assay (IF50 formulation, X-77), post-emergence herbicidal activity; conditions: 360 h, 15 DAA, visual score, read-out: Post-emergence herbicidal activity (percentage phytotoxicity) BRSNN; for plant injury at 30 g/ha: application rate 30 g/ha; for plant injury at 125 g/ha: application rate 125 g/ha
Protocol: (§1) Seeds of a variety of monocotyledonous and dicotyledonous test plants are sown in standard soil in pots. The plants are cultivated for one day (for pre-emergence) or for about 12 days (for post-emergence) under controlled conditions in a glasshouse (warm climate species at 24/18° C., cool climate species at 20/16° C., both at day/night; 16 hours light; 65% humidity).
(§2) An “instant formulation”, known as the “IF50”, containing 50 g/liter (i.e. 5% w/v) of the “technical” (i.e. unformulated) active ingredient is prepared by dissolving the active ingredient in a mixture of organic solvents and emulsifier, details of which are provided in the Table below. This IF50 is then mixed with a small, variable amount of acetone to aid dissolution, before addition of a 0.2% v/v aqueous solution of the adjuvant X-77 (which is a mixture of alkyl aryl polyoxyethylene glycols and free fatty acids in isopropanol, CAS Registry number 11097-66-8), as the aqueous diluent, to form an aqueous spray solution which contains a predetermined concentration of the active ingredient (which varies depending on the application rate of the active ingredient to the plants) and 0.2% v/v of the adjuvant X-77. This aqueous spray solution is then sprayed onto the plants, after one day's cultivation (for pre-emergence), or after about 12 days' cultivation (range=10-13 days) (for post-emergence).
(§3) The test plants are then grown on, in a glasshouse (greenhouse) under controlled conditions (warm climate species at 24/18° C., cool climate species at 20/16° C., both at day/night; 16 hours light; 65% humidity) and are watered twice daily. 15 days after application of the test herbicide (15DAA) (for post-emergence), and 20 days after application of the test herbicide (20DAA) (for pre-emergence), the test plants are evaluated visually, and an assessed percentage phytotoxicity score is given for each herbicidal application on each plant species (with 100%=total damage to plant; 0%=no damage to plant).
(§4) Cool climate crop plants: Triticum aestivum (TRZAW, winter wheat), Brassica napus (BRSNN, rape, also called oilseed rape or rapeseed), Beta vulgaris (BEAVA, sugarbeet). Warm climate crop plants: Glycine max (GLXMA, soybean).

[2] = tested on: Glycine max (GLXMA, soybean); assay: as above; conditions: 360 h, 15 DAA, visual score, read-out: Post-emergence herbicidal activity (percentage phytotoxicity) GLXMA; for plant injury at 30 g/ha: application rate 30 g/ha; for plant injury at 125 g/ha: application rate 125 g/ha
Protocol: as §1, §2, §3, §4

[3] = tested on: Beta vulgaris (BEAVA, sugarbeet); assay: as above; conditions: 360 h, 15 DAA, visual score, read-out: Post-emergence herbicidal activity (percentage phytotoxicity) BEAVA; for plant injury at 30 g/ha: application rate 30 g/ha; for plant injury at 125 g/ha: application rate 125 g/ha
Protocol: as §1, §2, §3, §4

[4] = tested on: Triticum aestivum (TRZAW, winter wheat); assay: as above; conditions: 360 h, 15 DAA, visual score, read-out: Post-emergence herbicidal activity (percentage phytotoxicity) TRZAW; for plant injury at 30 g/ha: application rate 30 g/ha; for plant injury at 125 g/ha: application rate 125 g/ha
Protocol: as §1, §2, §3, §4

[5] = tested on: Lolium perenne (LOLPE); assay: as above; conditions: 360 h, 15 DAA, visual score, read-out: Post-emergence herbicidal activity (percentage phytotoxicity) LOLPE; for pest or weed control at 30 g/ha: application rate 30 g/ha; for pest or weed control at 125 g/ha: application rate 125 g/ha
Protocol: as §1, §2, §3
(§5) Cool climate (“cool season”) grassy monocotyledonous weeds: Alopecurus myosuroides (ALOMY), Avena fatua (AVEFA), Lolium perenne (LOLPE).

[6] = tested on: Avena fatua (AVEFA); assay: as above; conditions: 360 h, 15 DAA, visual score, read-out: Post-emergence herbicidal activity (percentage phytotoxicity) AVEFA; for pest or weed control at 30 g/ha: application rate 30 g/ha; for pest or weed control at 125 g/ha: application rate 125 g/ha
Protocol: as §1, §2, §3, §5

[7] = tested on: Alopecurus myosuroides (ALOMY); assay: as above; conditions: 360 h, 15 DAA, visual score, read-out: Post-emergence herbicidal activity (percentage phytotoxicity) ALOMY; for pest or weed control at 30 g/ha: application rate 30 g/ha; for pest or weed control at 125 g/ha: application rate 125 g/ha
Protocol: as §1, §2, §3, §5

[8] = tested on: Setaria faberi (SETFA); assay: as above; conditions: 360 h, 15 DAA, visual score, read-out: Post-emergence herbicidal activity (percentage phytotoxicity) SETFA; for pest or weed control at 30 g/ha: application rate 30 g/ha; for pest or weed control at 125 g/ha: application rate 125 g/ha
Procedure, shortened: (§6)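 Percent phytotoxicity is scored by eye 20 days after a pre-emergence spray given one day after sowing, or 15 days after a post-emergence spray given about 12 days after sowing. Spray is IF50 formulation diluted in 0.2% v/v X-77 aqueous adjuvant.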

[9] = tested on: Digitaria sanguinalis (DIGSA); assay: as above; conditions: 360 h, 15 DAA, visual score, read-out: Post-emergence herbicidal activity (percentage phytotoxicity) DIGSA; for pest or weed control at 30 g/ha: application rate 30 g/ha; for pest or weed control at 125 g/ha: application rate 125 g/ha
Procedure, shortened: as §6

[10] = tested on: Echinochloa crus-galli (ECHCG); assay: Test 1 glasshouse assay, post-emergence herbicidal activity; conditions: 312 h, after 13 days, read-out: Percentage phytotoxicity ECHCG
Procedure, shortened: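 Plants sprayed 8 days after sowing with active ingredient in acetone/water (50:50) containing 0.5% Tween 20, grown in glasshouse at 24/16°C day/night, 14 h light, 65% humidity. Phytotoxicity scored visually after 13 days as percentage damage (100% = total damage; 0% = none).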

[11] = tested on: Lolium perenne (LOLPE); assay: Test 2 glasshouse assay (IF50 formulation, X-77), pre-emergence herbicidal activity; conditions: 480 h, 250 g/ha, 20DAA, read-out: Percentage phytotoxicity LOLPE
Protocol: as §1, §2, §3, §5

[12] = post-emergence (Example 1B Table 2)
[13] = post-emergence (Example 1B Table 1)

Compound: C#CCC1CC(=O)C(c2c(CC)cc(C)cc2CC)C1=O (stereo not shown) [Compound A25, 2-(2,6-diethyl-4-methyl-phenyl)-4-(prop-2-ynyl)-cyclopentane-1,3-dione]
- plant injury at 30 g/ha [1]: 0%
- plant injury at 125 g/ha [1]: 20%
- plant injury at 30 g/ha [2]: 0%
- plant injury at 125 g/ha [2]: 0%
- plant injury at 30 g/ha [3]: 0%
- plant injury at 125 g/ha [3]: 0%
- plant injury at 30 g/ha [4]: 10%
- plant injury at 125 g/ha [4]: 60%
- pest or weed control at 30 g/ha [5]: 90%
- pest or weed control at 125 g/ha [5]: 100%
- pest or weed control at 30 g/ha [6]: 80%
- pest or weed control at 125 g/ha [6]: 100%
- pest or weed control at 30 g/ha [7]: 50%
- pest or weed control at 125 g/ha [7]: 80%
- pest or weed control at 30 g/ha [8]: 90%
- pest or weed control at 125 g/ha [8]: 100%
- pest or weed control at 30 g/ha [9]: 100%
- pest or weed control at 125 g/ha [9]: 100%
- pest or weed control at 62.5 g/ha [10, 12]: 100%
- pest or weed control at 250 g/ha [10, 12]: 100%
- pest or weed control at 250 g/ha [11]: 90%

Compound: C#CCC1CC(=O)C(c2c(F)cc(-c3ccc(Cl)cc3)cc2OC)C1=O (stereo not shown) [Compound A14]
- plant injury at 125 g/ha [1]: 0%
- plant injury at 125 g/ha [2]: 0%
- plant injury at 125 g/ha [3]: 10%
- plant injury at 125 g/ha [4]: 40%
- pest or weed control at 125 g/ha [5]: 20%
- pest or weed control at 125 g/ha [6]: 40%
- pest or weed control at 125 g/ha [7]: 60%
- pest or weed control at 125 g/ha [8]: 90%
- pest or weed control at 125 g/ha [9]: 100%
- pest or weed control at 62.5 g/ha [10, 13]: 100%
- pest or weed control at 250 g/ha [10, 13]: 100%
- pest or weed control at 250 g/ha [10, 12]: 100%
- pest or weed control at 250 g/ha [11]: 70%

Compound: C#CCC1CC(=O)C(c2c(F)cc(-c3ccc(Cl)cc3)cc2Cl)C1=O (stereo not shown) [Compound A6, 2-[2-chloro-4-(4-chlorophenyl)-6-fluorophenyl]-4-prop-2-ynylcyclopentane-1,3-dione]
- plant injury at 125 g/ha [1]: 20%
- plant injury at 250 g/ha ([1]; application rate 250 g/ha): 40%
- plant injury at 125 g/ha [2]: 10%
- plant injury at 250 g/ha ([2]; application rate 250 g/ha): 10%
- plant injury at 125 g/ha [3]: 20%
- plant injury at 250 g/ha ([3]; application rate 250 g/ha): 40%
- plant injury at 125 g/ha [4]: 80%
- plant injury at 250 g/ha ([4]; application rate 250 g/ha): 90%
- pest or weed control at 125 g/ha [5]: 30%
- pest or weed control at 250 g/ha ([5]; application rate 250 g/ha): 70%
- pest or weed control at 125 g/ha [6]: 70%
- pest or weed control at 250 g/ha ([6]; application rate 250 g/ha): 80%
- pest or weed control at 125 g/ha [7]: 80%
- pest or weed control at 250 g/ha ([7]; application rate 250 g/ha): 100%
- pest or weed control at 125 g/ha [8]: 100%
- pest or weed control at 250 g/ha ([8]; application rate 250 g/ha): 100%
- pest or weed control at 125 g/ha [9]: 100%
- pest or weed control at 250 g/ha ([9]; application rate 250 g/ha): 100%
- pest or weed control at 30 g/ha [10, 13]: 100%
- pest or weed control at 250 g/ha [10, 13]: 100%
- pest or weed control at 250 g/ha [10, 12]: 100%
- pest or weed control at 250 g/ha [11]: 30%

Compound: C#CCC1CC(=O)C(c2c(F)cc(-c3ccc(F)c(F)c3)cc2OC)C1=O (stereo not shown) [Compound A22]
- plant injury at 30 g/ha [1]: 50%
- plant injury at 125 g/ha [1]: 70%
- plant injury at 30 g/ha [2]: 0%
- plant injury at 125 g/ha [2]: 40%
- plant injury at 30 g/ha [3]: 0%
- plant injury at 125 g/ha [3]: 0%
- plant injury at 30 g/ha [4]: 20%
- plant injury at 125 g/ha [4]: 70%
- pest or weed control at 30 g/ha [5]: 10%
- pest or weed control at 125 g/ha [5]: 50%
- pest or weed control at 30 g/ha [6]: 0%
- pest or weed control at 125 g/ha [6]: 70%
- pest or weed control at 30 g/ha [7]: 50%
- pest or weed control at 125 g/ha [7]: 70%
- pest or weed control at 30 g/ha [8]: 80%
- pest or weed control at 125 g/ha [8]: 100%
- pest or weed control at 30 g/ha [9]: 70%
- pest or weed control at 125 g/ha [9]: 100%
- pest or weed control at 30 g/ha [10, 13]: 90%
- pest or weed control at 250 g/ha [10, 13]: 100%
- pest or weed control at 250 g/ha [11]: 20%

Compound: C#CCC1CC(=O)C(c2c(Cl)cc(-c3ccc(F)c(F)c3)cc2OC)C1=O (stereo not shown) [Compound A13]
- plant injury at 30 g/ha [1]: 70%
- plant injury at 125 g/ha [1]: 80%
- plant injury at 30 g/ha [2]: 20%
- plant injury at 125 g/ha [2]: 30%
- plant injury at 30 g/ha [3]: 60%
- plant injury at 125 g/ha [3]: 70%
- plant injury at 30 g/ha [4]: 40%
- plant injury at 125 g/ha [4]: 80%
- pest or weed control at 30 g/ha [5]: 10%
- pest or weed control at 125 g/ha [5]: 80%
- pest or weed control at 30 g/ha [6]: 30%
- pest or weed control at 125 g/ha [6]: 80%
- pest or weed control at 30 g/ha [7]: 30%
- pest or weed control at 125 g/ha [7]: 100%
- pest or weed control at 30 g/ha [8]: 100%
- pest or weed control at 125 g/ha [8]: 100%
- pest or weed control at 30 g/ha [9]: 100%
- pest or weed control at 125 g/ha [9]: 100%
- pest or weed control at 30 g/ha [10, 13]: 100%
- pest or weed control at 250 g/ha [10, 13]: 100%
- pest or weed control at 62.5 g/ha [10, 12]: 100%
- pest or weed control at 250 g/ha [10, 12]: 100%
- pest or weed control at 250 g/ha [11]: 100%

Source: US10375956B2, “Herbicidally active 2-(substituted-phenyl)-cyclopentane-1,3-dione compounds and derivatives thereof” (Syngenta Limited, priority 2013, dated 2019)
